The values that follow come from patent US20240409585A1, “MACROCYCLIC IMMUNOMODULATORS” (priority 2021, published 2024).

Bridge positions count the residues as written; N and C are the ends. Square brackets hold non-standard residues; d marks the D form. Peptide text beside a SMILES is read from it. * marks the point of attachment. Phe(3-CF3) = N[C@@H](Cc1cccc(C(F)(F)F)c1)C(=O)O; Ala(morpholin-4-yl) = N[C@@H](CN1CCOCC1)C(=O)O; Phe(4-COOH) = N[C@@H](Cc1ccc(C(=O)O)cc1)C(=O)O; Bip = N[C@@H](Cc1ccc(-c2ccccc2)cc1)C(=O)O; Phe(3-Me) = Cc1cccc(C[C@H](N)C(=O)O)c1; Bta = N[C@@H](Cc1csc2ccccc12)C(=O)O; Val(3-OH) = CC(C)(O)[C@H](N)C(=O)O; 3Pal = N[C@@H](Cc1cccnc1)C(=O)O; 4Pal = N[C@@H](Cc1ccncc1)C(=O)O; Cha = N[C@@H](CC1CCCCC1)C(=O)O; Cit = NC(=O)NCCC[C@H](N)C(=O)O; dDab = NCC[C@@H](N)C(=O)O; Carboxymethyl = O=C(O)C*; NMeA = CN[C@@H](C)C(=O)O; Orn = NCCC[C@H](N)C(=O)O; Dab = NCC[C@H](N)C(=O)O; Dap = NC[C@H](N)C(=O)O

The target of this assay is T1, PE-labeled human PD-L1-Ig binding to Jurkat cell line over-expressing human PD-1 (Jurkat-PD-1) (Homo sapiens, UniProt Q15116).
T1 construct: expressed in transfected cells; host or cells: Jurkat
T1 sequence (Q15116 25-288): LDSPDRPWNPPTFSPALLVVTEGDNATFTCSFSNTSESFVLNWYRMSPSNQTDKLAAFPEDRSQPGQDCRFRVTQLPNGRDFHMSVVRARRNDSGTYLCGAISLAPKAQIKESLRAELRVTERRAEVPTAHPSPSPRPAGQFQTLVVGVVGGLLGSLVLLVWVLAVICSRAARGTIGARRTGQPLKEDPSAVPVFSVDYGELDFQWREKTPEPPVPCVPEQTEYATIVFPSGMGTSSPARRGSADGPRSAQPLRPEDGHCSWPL
Description: Jurkat-PD-1 Cell Binding High-Content Screening Assay (CBA): Method 1. To be noted: Jurkat-hPD-1 cells, PE-labeled PD-L1-Ig 20 nM final; read-out: Jurkat HPDL1 PD1 IC50 (uM) (Method 1).
As to `Cc1cccc(C[C@@H]2NC(=O)[C@H](CC(=O)O)NC(=O)[C@H](Cc3ccc(OCC(=O)O)cc3)NC(=O)[C@H](CN)NC(=O)CSC[C@@H](C(=O)N[C@@H](CCN)C(N)=O)NC(=O)[C@@H](CCN)NC(=O)[C@H](C(C)C)NC(=O)[C@H](CC3CCCCC3)NC(=O)[C@H](CCN)NC(=O)[C@@H](CC(C)C)NC(=O)[C@H](C)N(C)C(=O)[C@H](Cc3ccc(O)cc3)NC(=O)[C@H](Cc3ccc(-c4ccccc4)cc3)NC(=O)[C@H](Cc3ccc(O)cc3)NC2=O)c1` [Compound 1873] ({CH2CO}-[Dap]Y(Carboxymethyl)D[Phe(3-Me)]Y[Bip]Y[NMeA][dL][Dab][Cha]V[dDab]C[Dab]-NH2; thioether N-14), the IC50 (in general, the concentration needed to halve the response being measured) stood at 0.03 µM. To `Cc1cccc(C[C@@H]2NC(=O)[C@H](CC(=O)O)NC(=O)[C@H](Cc3ccc(O)cc3)NC(=O)[C@H](CC(N)=O)NC(=O)CSC[C@@H](C(N)=O)NC(=O)[C@H]([C@@H](C)O)NC(=O)[C@H](C(C)C)NC(=O)[C@H](CC(C)C)NC(=O)[C@H](CCN)NC(=O)[C@@H](CC(C)C)NC(=O)[C@H](C)N(C)C(=O)[C@H](CCCNC(N)=O)NC(=O)[C@H](Cc3ccc(-c4ccccc4)cc3)NC(=O)[C@H](C(C)C)NC2=O)c1` [Compound 1641] ({CH2CO}-NYD[Phe(3-Me)]V[Bip][Cit][NMeA][dL][Dab]LVTC-NH2; thioether N-14) belongs 0.14 µM; to `CC(C)C[C@@H]1NC(=O)[C@H](Cc2c[nH]c3ccccc23)NC(=O)[C@H](CC(=O)O)NC(=O)[C@H](Cc2ccc(C(=O)O)cc2)NC(=O)[C@H](Cc2cccnc2)NC(=O)CSC[C@@H](C(=O)N[C@@H](C)C(N)=O)NC(=O)[C@H](CO)NC(=O)[C@H](C(C)C)NC(=O)[C@H](CC(C)C)NC(=O)[C@H](CC(N)=O)NC(=O)[C@@H](C)NC(=O)[C@H](C)N(C)C(=O)[C@H](C(C)C)NC(=O)[C@H](Cc2ccc(-c3ccccc3)cc2)NC1=O` [Compound 1747] ({CH2CO}-[3Pal][Phe(4-COOH)]DWL[Bip]V[NMeA][dA]NLVSCA-NH2; thioether N-14), 0.02 µM; to `Cc1cccc(C[C@@H]2NC(=O)[C@H](CC(=O)O)NC(=O)[C@H](Cc3ccc(OCC(=O)O)cc3)NC(=O)[C@H](Cc3ccncc3)NC(=O)CSC[C@@H](C(=O)N[C@H](C)C(N)=O)NC(=O)[C@H](CO)NC(=O)[C@H](C(C)(C)O)NC(=O)[C@H](CC3CCCCC3)NC(=O)[C@H](CCN)NC(=O)[C@@H](CC(C)C)NC(=O)[C@H](C)N(C)C(=O)[C@H](Cc3ccc(OCC(=O)O)cc3)NC(=O)[C@H](Cc3ccc(-c4ccccc4)cc3)NC(=O)[C@H](Cc3ccc(C(=O)O)cc3)NC2=O)c1` [Compound 2183] ({CH2CO}-[4Pal]Y(Carboxymethyl)D[Phe(3-Me)][Phe(4-COOH)][Bip]Y(Carboxymethyl)[NMeA][dL][Dab][Cha][Val(3-OH)]SC[dA]-NH2; thioether N-14), 0.11 µM. For `Cc1cccc(C[C@@H]2NC(=O)[C@H](CC(=O)O)NC(=O)[C@H](Cc3ccc(OCC(=O)O)cc3)NC(=O)[C@H](Cc3cnc[nH]3)NC(=O)CSC[C@@H](C(=O)N[C@H](C)C(N)=O)NC(=O)[C@H](CO)NC(=O)[C@H](C(C)(C)O)NC(=O)[C@H](CC3CCCCC3)NC(=O)[C@H](CCN)NC(=O)[C@@H](CC(C)C)NC(=O)[C@H](C)N(C)C(=O)[C@H](Cc3ccc(OCC(=O)O)cc3)NC(=O)[C@H](Cc3ccc(-c4ccccc4)cc3)NC(=O)[C@H](Cc3ccc(C(=O)O)cc3)NC2=O)c1` [Compound 2182] ({CH2CO}-HY(Carboxymethyl)D[Phe(3-Me)][Phe(4-COOH)][Bip]Y(Carboxymethyl)[NMeA][dL][Dab][Cha][Val(3-OH)]SC[dA]-NH2; thioether N-14) the value was 0.09 µM; for `Cc1cccc(C[C@@H]2NC(=O)[C@H](CC(=O)O)NC(=O)[C@H](Cc3ccc(O)cc3)NC(=O)[C@H](CC(N)=O)NC(=O)CSC[C@@H](C(N)=O)NC(=O)[C@H]([C@@H](C)O)NC(=O)[C@H](C(C)C)NC(=O)[C@H](CC(C)C)NC(=O)[C@H](CCN)NC(=O)[C@@H](CC(C)C)NC(=O)[C@H](C)N(C)C(=O)[C@H](C(C)C)NC(=O)[C@H](Cc3ccc(-c4ccccc4)cc3)NC(=O)[C@H](C(C)C)NC2=O)c1` [Compound 1637] ({CH2CO}-NYD[Phe(3-Me)]V[Bip]V[NMeA][dL][Dab]LVTC-NH2; thioether N-14), 0.15 µM.

For `CCNC(=O)[C@H](CCN)NC(=O)[C@@H]1CSCC(=O)N[C@@H](Cc2ccncc2)C(=O)N[C@@H](Cc2ccc(C(=O)O)cc2)C(=O)N[C@@H](CC(=O)O)C(=O)N[C@@H](Cc2c[nH]c3ccccc23)C(=O)N[C@@H](CC(C)C)C(=O)N[C@@H](Cc2ccc(-c3ccccc3)cc2)C(=O)N[C@@H]([C@@H](C)CC)C(=O)N(C)[C@@H](C)C(=O)N[C@H](CC(C)C)C(=O)N[C@@H](CCN)C(=O)N[C@@H](CC2CCCCC2)C(=O)N[C@@H](C(C)(C)O)C(=O)N[C@@H](CO)C(=O)N1` [Compound 1849] ({CH2CO}-[4Pal][Phe(4-COOH)]DWL[Bip]I[NMeA][dL][Dab][Cha][Val(3-OH)]SC[Dab]-NHEt; thioether N-14), the IC50 worked out at 0.01 µM.

As for `CC(C)C[C@@H]1NC(=O)[C@H](CCCNC(=N)N)NC(=O)[C@H](Cc2csc3ccccc23)NC(=O)[C@H](C)N(C)C(=O)[C@H](CCCNC(=N)N)NC(=O)[C@H](Cc2ccc(-c3ccccc3)cc2)NC(=O)[C@H](C(C)C)NC(=O)[C@H](Cc2c[nH]c3ccccc23)NC(=O)[C@H](CC(=O)O)NC(=O)[C@H](Cc2ccc(O)cc2)NC(=O)[C@H](CCC(N)=O)NC(=O)CSC[C@@H](C(=O)N[C@@H](C)C(N)=O)NC(=O)[C@H](CO)NC(=O)[C@H](C(C)C)NC1=O` [Compound 1057] ({CH2CO}-QYDWV[Bip]R[NMeA][Bta]RLVSCA-NH2; thioether N-14), the IC50 is 0.18 µM. Regarding `Cc1cccc(C[C@@H]2NC(=O)[C@H](CC(=O)O)NC(=O)[C@H](Cc3ccc(OCC(=O)O)cc3)NC(=O)[C@H](Cc3ccncc3)NC(=O)CSC[C@@H](C(N)=O)NC(=O)[C@H](CCC(=O)O)NC(=O)[C@H](C(C)C)NC(=O)[C@H](CC3CCCCC3)NC(=O)[C@H](CCN)NC(=O)[C@@H](CC(C)C)NC(=O)[C@H](C)N(C)C(=O)[C@H](Cc3ccc(OCC(=O)O)cc3)NC(=O)[C@H](Cc3ccc(-c4ccccc4)cc3)NC(=O)[C@H](Cc3ccc(OCC(=O)O)cc3)NC2=O)c1` [Compound 1661] ({CH2CO}-[4Pal]Y(Carboxymethyl)D[Phe(3-Me)]Y(Carboxymethyl)[Bip]Y(Carboxymethyl)[NMeA][dL][Dab][Cha]VEC-NH2; thioether N-14), the IC50 was determined as 0.05 µM. For `CC(C)C[C@@H]1NC(=O)[C@H](CCN)NC(=O)[C@@H](CC(C)C)NC(=O)[C@H](C)N(C)C(=O)[C@H](CCCNC(=N)N)NC(=O)[C@H](Cc2ccc(-c3ccccc3)cc2)NC(=O)[C@H](C(C)C)NC(=O)[C@H](Cc2c[nH]c3ccccc23)NC(=O)[C@H](CC(=O)O)NC(=O)[C@H](Cc2ccc(O)cc2)NC(=O)[C@H](Cc2ccccc2)NC(=O)CSC[C@@H](C(=O)N[C@@H](C)C(N)=O)NC(=O)[C@H]([C@@H](C)O)NC(=O)[C@H](C(C)C)NC1=O` [Compound 1052] ({CH2CO}-FYDWV[Bip]R[NMeA][dL][Dab]LVTCA-NH2; thioether N-14) the value was 0.04 µM; for `CC(C)C[C@@H]1NC(=O)[C@H](CC(N)=O)NC(=O)[C@@H](CC(C)C)NC(=O)[C@H](C)N(C)C(=O)[C@H](CCC(=O)O)NC(=O)[C@H](Cc2ccc(-c3ccccc3)cc2)NC(=O)[C@H](C(C)C)NC(=O)[C@H](Cc2c[nH]c3ccccc23)NC(=O)[C@H](CC(=O)O)NC(=O)[C@H](Cc2ccc(O)cc2)NC(=O)[C@H](Cc2ccncc2)NC(=O)CSC[C@@H](C(N)=O)NC(=O)[C@H]([C@@H](C)O)NC(=O)[C@H](C(C)C)NC1=O` [Compound 1631] ({CH2CO}-[4Pal]YDWV[Bip]E[NMeA][dL]NLVTC-NH2; thioether N-14), 0.11 µM; for `CC(C)C[C@@H]1NC(=O)[C@H](CCCCN)NC(=O)[C@@H](CC(C)C)NC(=O)[C@H](C)N(C)C(=O)[C@H](CCCNC(=N)N)NC(=O)[C@H](Cc2ccc(-c3ccccc3)cc2)NC(=O)[C@H](C(C)C)NC(=O)[C@H](Cc2c[nH]c3ccccc23)NC(=O)[C@H](CC(=O)O)NC(=O)[C@H](Cc2ccc(O)cc2)NC(=O)[C@H](CC(N)=O)NC(=O)CSC[C@@H](C(=O)N[C@@H](CO)C(N)=O)NC(=O)[C@H]([C@@H](C)O)NC(=O)[C@H](C(C)C)NC1=O` [Compound 1174] ({CH2CO}-NYDWV[Bip]R[NMeA][dL]KLVTCS-NH2; thioether N-14), 0.06 µM. For `CC(C)C[C@H]1NC(=O)[C@H](C)N(C)C(=O)[C@H](CCC(N)=O)NC(=O)[C@H](Cc2ccc(-c3ccccc3)cc2)NC(=O)[C@H](Cc2ccc(C(=O)O)cc2)NC(=O)[C@H](Cc2cccc(C(F)(F)F)c2)NC(=O)[C@H](CC(N)=O)NC(=O)[C@H](Cc2ccc(OCC(=O)O)cc2)NC(=O)[C@H](CN2CCOCC2)NC(=O)CSC[C@@H](C(=O)N[C@@H](CCN)C(N)=O)NC(=O)[C@H](CCCN)NC(=O)[C@H](C(C)C)NC(=O)[C@H](CC2CCCCC2)NC(=O)[C@H](CCN)NC1=O` [Example 2280] ({CH2CO}-[Ala(morpholin-4-yl)]Y(Carboxymethyl)N[Phe(3-CF3)][Phe(4-COOH)][Bip]Q[NMeA][dL][Dab][Cha]V[Orn]C[Dab]-NH2; thioether N-14), the IC50 was 0.14 µM.

In the case of `CC(C)C[C@@H]1NC(=O)[C@H](CCN)NC(=O)[C@@H](CC(C)C)NC(=O)[C@H](C)N(C)C(=O)[C@H](CCCN)NC(=O)[C@H](Cc2ccc(-c3ccccc3)cc2)NC(=O)[C@H](C(C)C)NC(=O)[C@H](Cc2c[nH]c3ccccc23)NC(=O)[C@H](CC(=O)O)NC(=O)[C@H](Cc2ccc(O)cc2)NC(=O)[C@H](CCC(N)=O)NC(=O)CSC[C@@H](C(=O)N[C@@H](C)C(N)=O)NC(=O)[C@H]([C@@H](C)O)NC(=O)[C@H](C(C)C)NC1=O` [Compound 1363] ({CH2CO}-QYDWV[Bip][Orn][NMeA][dL][Dab]LVTCA-NH2; thioether N-14), the IC50 worked out at 0.11 µM.
